The results in this text go back to patent US6949506B2, “Relaxin-like factor and methods and uses thereof” (BAS Medical, Inc., priority 1995, dated 2005).

Positions of bridges follow the written chain, without caps; N, C: chain ends. Chains are numbered I, II in the order given. No end group written: not given here.

One assay addresses T1, uterine relaxin receptor (Mus musculus, UniProt Q6R6I7).
T1 construct: brain, and uterus (of estrogen primed mice); from tissue; host or cells: uterus of estrogen-primed mice, crude membranes
T1 sequence (Q6R6I7 1-758): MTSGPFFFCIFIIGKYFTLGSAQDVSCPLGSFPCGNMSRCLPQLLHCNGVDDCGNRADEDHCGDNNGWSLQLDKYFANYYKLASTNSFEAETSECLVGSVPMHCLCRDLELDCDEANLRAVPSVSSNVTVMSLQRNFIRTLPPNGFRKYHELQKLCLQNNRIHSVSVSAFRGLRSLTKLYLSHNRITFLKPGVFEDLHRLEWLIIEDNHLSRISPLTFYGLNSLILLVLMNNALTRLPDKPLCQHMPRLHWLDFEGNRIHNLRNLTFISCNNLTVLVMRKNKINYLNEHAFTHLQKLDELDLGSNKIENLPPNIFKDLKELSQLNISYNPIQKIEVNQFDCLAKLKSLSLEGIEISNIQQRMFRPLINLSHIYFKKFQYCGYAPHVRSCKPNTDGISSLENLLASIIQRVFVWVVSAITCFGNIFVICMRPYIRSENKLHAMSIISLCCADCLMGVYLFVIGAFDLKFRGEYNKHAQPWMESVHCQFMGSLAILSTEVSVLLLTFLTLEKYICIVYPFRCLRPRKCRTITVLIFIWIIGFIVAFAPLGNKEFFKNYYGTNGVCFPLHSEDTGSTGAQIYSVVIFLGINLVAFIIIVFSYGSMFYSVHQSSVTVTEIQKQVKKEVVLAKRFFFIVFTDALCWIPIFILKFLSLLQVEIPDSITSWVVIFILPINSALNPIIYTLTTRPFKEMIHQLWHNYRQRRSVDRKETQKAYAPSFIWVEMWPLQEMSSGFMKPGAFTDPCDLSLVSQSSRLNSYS
The assay can be described thus: Relaxin-binding assay, mouse uterus crude membranes, porcine relaxin tracer. The method, then:
Relaxin-binding assays were performed as described in Yang, et al., 1992, Endocrinology 130:179-185 and Büllesbach, et al., 1994, Endocrine. 2:1115-1120, using crude membrane preparations of mouse tissue. Mouse brains of 2 mice were collected into 15 ml of chilled buffer (25 mM HEPES, 0.14 M NaCl, 5.7 mM KCI, 0.2 mM phenylmethylsulfonyl-fluoride, and 80 mg/ml soybean trypsin inhibitor, pH 7.5) supplemented with sucrose (0.25 M, final concentration). The tissue was homogenized on ice for 10 s with a Polytron homogenizer (Brinlmann, Westbury, N.Y.) at setting 5. The homogenate was centrifuged at 700 rpm for 10 min at 4° C. and the supernatants were recentrifuged at 10,000×g for 1 h. The pellet was resuspended in 15 ml of ice cold binding buffer, 25 mM HEPES, 0.14 M NaCl, 5.7 mM KCI, 0.2 mM phenylmethylsulfonylfluoride, and 80 mg/ml soybean trypsin inhibitor, pH 7.5, supplemented with 1% bovine serum albumin, and centrifuged for 1 h at 10,000×g. […] The supernatant was discarded, the tip of the vial cut and counted in a γ-counter. Nonspecific binding was determined in the presence of 2 μl/ml of unlabeled competitor (0.33 μM). […]
Tissue specificity was determined using crude membrane preparations of leg muscles, kidneys, liver. brain, and uterus (of estrogen primed mice). […] Binding was based on protein concentration determined by Lowry.

The subject of another assay is washed human sperm. Nature of the assay: Sperm motility assay. In kind it is cell-based. The following applies: 10 and 100 ng/ml. From the text: Materials And Methods. Semen is obtained by masturbation from healthy volunteers. The sample is allowed to liquefy at room temperature and is then mixed with Minimum Essential Medium (MEM) with Hepes buffer added. This medium is used because it coincides with that washing medium employed by the in vitro clinic at MUSC. The sperm is then separated from the seminal fluid and MEM by centrifugation. The resultant sperm pellet is then resuspended in MEM at room temperature. Aliquots are then place in siliconized centrifuge tubes and one of several compounds added: l)human relaxin 10 ng/ml, 2)human relaxin 100 ng/ml, 3)relaxin-like factor 10 ng/ml, 4)relaxin-like factor 100 ng/ml, 5)one fraction of alkaline gland fluid from stingrays diluted 1:8 with pentoxyfyline. The additive is mixed well with the sperm/medium mixture. Samples are taken at 0, 2, 4, 6 and 24 hour intervals for automated determination of the following parameters: 1)motility, 2)progressivity, 3)path velocity, 4)progressive velocity, 5)track speed, 6)elongation, 7)lateral displacement, 8)cross beat frequency, 9)straightness, 10)linearity. Briefly described, each sample is loaded into a Maker heated specimen chamber and viewed in a light microscope equipped with laser doppler optics (IVOS, Beverly, Mass.).

For assay [1], the system named is procollagenase expression, rheumatoid synovial fibroblasts (Strain No. RSF112). The assay can be described thus: Stimulation of procollagenase expression by synovial fibroblasts (gelatin zymography). In kind it is cell-based, human. From the text:
A method for detecting and measuring procollagenase formation is described in Unemori, et al., 1991, J. Biol. Chem. 266:23477-482. Such method was modified to measure the expression of procollagenase in the presence of RLF as follows: Materials And Methods. Rheumatoid synovial fibroblasts (Strain No. […] Conditioned media were collected and an aliquot analyzed by gelatin zymography. Procollagenase was identified as a […] doublet at 52/57 kDa. The intensity of the doublet (i.e., the amount of procollagenase expressed, was quantified by scanning densitometry.

Regarding “RLF: synthesized human relaxin-like factor, two-chain peptide (A and B chain, SEQ ID NOS:3 and 4), three disulfide links (alpha AAATNPARYCCLSGCTQQDLLTLCPY; beta PTPEMREKLCGHHFVRALVRVCGGPRWSTEA; disulfide I:11-II:10; also: two further disulfide bonds, places not given here)”, the “recognition by the uterine relaxin receptor” value in the assay with uterine relaxin receptor is “barely recognizes”. For the same substance, the “50% Binding” value in the assay with uterine relaxin receptor (tracer pRLX) was 10000 ng. In addition, the “potency in maintaining sperm motility relative to relaxin” value with washed human sperm is given as “as potent in maintaining sperm motility at both doses as was relaxin”. In addition, the “effect on sperm motility compared to untreated controls” value in the assay on washed human sperm (0-24 h) is listed as “preserve the motility”. Also, the “stimulation of procollagenase expression” value came out at 0 fold in assay [1] (1 ng/ml), 2.0 fold in assay [1] (10 ng/ml) and 4.2 fold in assay [1] (100 ng/ml).
